Assay results from patent US10188677B2, “Iron supplement composition” (THE D DROPS COMPANY INC., priority 2011, dated 2019).
Marks after values point to notes of the source that are not given here.

Columns and labels:
Format in all cases: physicochemical
[1] = Dispersion: number of test tube inversions to achieve even dispersion of iron salt in carrier liquid; conditions: for Dispersion (# of inversions): 66 mg/mL elemental iron
Description: (§1) Iron salt in the form of ferrous sulfate (dried) and ferrous fumarate were investigated for dispersibility and settling behavior in a range of carrier liquids. Sufficient iron salt was added to test tubes to achieve concentrations of elemental iron equivalent to 66 mg/mL suspension (i.e., 2 mg/drop, a commercially-viable concentration for infant supplementation).
The initial preparation of dry powder iron salts into suspension was achieved by weighing the desired amount of dry powder, which was added to the liquid in a capped test tube. The combination was shaken for about two minutes, and it was then allowed to settle overnight to promote thorough particle whetting.
Suitability of the preparation for suspension was next tested by counting the number inversions of the test tube inversions required to achieve an even dispersion of particles in the carrier liquid. Each replicate began with iron salt fully settled at the bottom of the test tube.

[2] = Drop consistency for Eurodropper dispensing
Description: Drop consistency was examined to determine suitability of various dispersions for Eurodropper dispensing. Preparations of various iron salts, at concentrations of 66 mg/mL, were made using medium chain triglyceride oil. Each sample was shaken vigorously and then inverted to dispense 10 drops. This was repeated until 60 drops were dispensed.
The effect of carrier liquid type on drop consistency was next examined. Preparations of ferrous fumarate (149 μm particle size) were prepared and drop consistency was measured using similar methodology to that described above.

[3] = Settling: time for iron salt particulate to show evidence of settling in carrier liquid
Description: Settling behavior was also tested for each carrier liquid. Test tubes of carrier liquid were loaded with either ferrous sulfate (dried) or ferrous fumarate at concentrations of 66 mg/mL of elemental iron. […] Settling was then allowed to proceed and the time required for the iron salt particulate to show evidence of settling was recorded. Evidence of settling was considered as a reduction in opacity throughout the top 1 cm of liquid in the test tube.

[4] = Viscosity and density of carrier liquids
Description: as §1

[5] = carrier: medium chain triglyceride
[6] = iron salt 66 mg/mL in medium chain triglyceride oil
[7] = carrier: medium chain triglyceride, 66 mg/mL elemental iron
[8] = carrier: olive oil, 66 mg/mL elemental iron
[9] = carrier: rapeseed oil, 66 mg/mL elemental iron

**Q.** For `O=S(=O)([O-])[O-].[Fe+2]` [Ferrous sulfate (dried), ferrous sulfate (dried)], which “Dispersion (# of inversions)” value [1, 5] is on record?
**A.** Its value is 7.3 ± 0.6 # of inversions.

**Q.** What about the “Dispersion (# of inversions)” value ([1]; carrier: olive oil) of the same compound?
**A.** Its value is 27.3 ± 4.5 # of inversions.

**Q.** What about the “Dispersion (# of inversions)” value ([1]; carrier: rapeseed oil) of the same compound?
**A.** Its value is 62.0 ± 6.0 # of inversions.

**Q.** And the “Dispersibility” value ([1]; water-based preparations)?
**A.** The value was “not at all”.

**Q.** What about the “Dispensing of dispersion from the Eurodropper” value [2, 6] of the same compound?
**A.** The value was “** Dispersion failed to dispense at all from the Eurodropper because the powder clumped in the oil, and occluded opening”.

**Q.** And the “Settling” value [3, 7]?
**A.** Its value is 42.3 ± 8.5 s.

**Q.** And the “Settling” value [3, 8]?
**A.** Its value is 213.3 ± 7.6 s.

**Q.** What about the “Settling” value [3, 9] of the same compound?
**A.** The value was 238.7 ± 5.9 s.

**Q.** With `O` [Water] as the compound, how does the Density [4] read?
**A.** Its Density is 1 g/mL.

**Q.** What about the Viscosity ([4]; @ 20° C.) of the same compound?
**A.** Its Viscosity is 1 cP.

**Q.** Which results are given for `O=C([O-])/C=C/C(=O)[O-].[Fe+2]` [Ferrous fumarate, ferrous fumarate]?
**A.** Dispersibility ([1]; carrier: medium chain triglyceride oil, relative to the other carriers): acceptably rapid; Dispersion (# of inversions) [1, 5]: 56.4 ± 10.6 # of inversions; Dispersion (# of inversions) ([1]; carrier: olive oil): 84.0 ± 1.4 # of inversions; Dispersion (# of inversions) ([1]; carrier: rapeseed oil): 167.0 ± 7.0 # of inversions; Dispersion (# of inversions) ([1]; carrier: water): 4.3 ± 0.6 # of inversions; Dispersibility ([1]; water-based preparations): very easily; Average 10 Drop Weight (mg ± SD) ([2]; ferrous fumarate 149 μm particle size, carrier: canola oil): 284.8 ± 4.7 mg; Average 10 Drop Weight (mg ± SD) ([2]; ferrous fumarate 149 μm particle size, carrier: medium chain triglyceride): 276.2 ± 3.0 mg; Average 10 Drop Weight (mg ± SD) ([2]; ferrous fumarate 149 μm particle size, carrier: olive oil): 285.8 ± 3.5 mg; Average 10 Drop Weight (mg ± SD) ([2]; ferrous fumarate 149 μm particle size, carrier: water): Occluded *; Average 10 Drop Weight (mg ± SD) ([2]; iron salt 66 mg/mL in medium chain triglyceride oil, Eurodropper, 60 drops, listed as Ferrous fumarate (Sigma, XXX μm)): 264.7 ± 10.2 mg; Average 10 Drop Weight (mg ± SD) ([2]; iron salt 66 mg/mL in medium chain triglyceride oil, Eurodropper, 60 drops, listed as Ferrous fumarate (Watson, 149 μm)): 277.0 ± 10.3 mg; Performance in the Eurodropper ([2]; regardless of carrier liquid): consistent performance; Settling [3, 7]: 16.3 ± 1.2 s; Settling [3, 8]: 95.5 ± 4.9 s; Settling [3, 9]: 144.0 ± 5.7 s; Settling ([3]; carrier: water, 66 mg/mL elemental iron): 1.0 ± 0.5 s; Settling ([3]; in water): extremely rapid settling

**Q.** Which results are given for `O=P([O-])([O-])OP(=O)([O-])[O-].[Fe+2].[Fe+2]` [Ferrous pyrophosphate]?
**A.** Dispensing of dispersion from the Eurodropper [2, 6]: * Dispersion failed to dispense from the Eurodropper after 15 drops.; Average 10 Drop Weight (mg ± SD) ([2]; iron salt 66 mg/mL in medium chain triglyceride oil, Eurodropper, 60 drops): 266 * mg
